These results are taken from patent publication US10251869B2, “Compositions and methods of inhibiting metallo-β-lactamases” (priority 2014, dated 2019).

The structures appear in SMILES notation. Values after ≈ are worked out from the molar mass of the structure shown. Where two headings read alike, the source gives them in different places.

Data set [1] addresses T1, VIM-24 (Escherichia coli, UniProt Q5U7L7, R205L).
T1 construct: which corresponds to cleavage after residues 20 (plus an additional Met residue on the N-terminus); made in house; host or cells: E. coli BL21(DE3) pLys, plasmid pET-24a(+)-blaVIM-24-S21
In words: Cefepime and ceftazidime hydrolysis in periplasm preparations, VIM-24. The conditions noted are these: 800 μM cefepime or 400 μM ceftazidime, 25° C. It is filed as biochemical. On the procedure:
(§1) Additionally, cefepime and ceftazidime hydrolysis were measured using periplasm preparations, as previously described. Briefly, periplasmic preparations of E. coli DH10B pBC SK (−) harboring blaVIM-2 or blaVIM-24 were obtained by osmotic shock with chloroform, and MBL production assessed by immunoblotting. Initial velocities of hydrolysis at high substrate concentrations (800 μM for cefepime and 400 μM for ceftazidime) were measured using equal amounts of both β-lactamases in 15 mM HEPES pH 7.5, 200 mM NaCl, supplemented with 50 μM ZnSO4, at 25° C.

The subject of data set [2] is E. coli DH10B pBCSK(−) producing R228Y variant. The data set is described as follows: MIC by agar dilution, E. coli DH10B producing VIM-2 R228Y. It is filed as cell-based. To be noted: Escherichia coli. On the procedure: (§2) E. coli DH10B (Invitrogen, Carlsbad, Calif.) was used as a host strain for pBCSK (−) blaVIM-2, and to obtain a mutant library at position 228 by site-saturation mutagenesis, using the QuickChange XL Site-directed Mutagenesis Kit (Stratagene). Briefly, primers that capture all 19 variants at MBL position 228 were designed and PCR mutagenic reactions were conducted using pBCSK (−) blaVIM-2 as a template, and transformed into E. coli DH10B. Single colonies were selected for plasmid purification, and successful mutagenesis was verified by complete DNA sequencing.
(§3) The effect of Zn^2+ availability was also tested by agar dilution using MH supplemented with 250 μM ZnSO4 or 5 μM EDTA. Reported values are the mode of at least 3 biological replicates.

Data set [3] has as its system E. coli DH10B pBCSK(−) producing R228K variant. The data set is described as follows: MIC by agar dilution, E. coli DH10B producing VIM-2 R228K. It is filed as cell-based. To be noted: Escherichia coli. On the procedure: as §2, §3
For orientation: In agar dilution the substance is mixed into plates at graded concentrations.

Data set [4] relates to E. coli DH10B pBCSK(−) producing R228P variant. The data set is described as follows: MIC by agar dilution, E. coli DH10B producing VIM-2 R228P. In kind it is cell-based. To be noted: Escherichia coli. On the procedure: as §2, §3
Data set [5] has as its target T2, VIM-2 (Escherichia coli, UniProt Q5U7L7).
T2 construct: expressed in transfected cells; host or cells: E. coli DH10B carrying pBC SK(-) blaVIM-2; periplasmic extract by osmotic shock with chloroform
In words: Cefepime and ceftazidime hydrolysis in periplasm preparations, VIM-2. It is filed as biochemical, P. aeruginosa. The conditions noted are these: 800 μM cefepime or 400 μM ceftazidime, 25° C. On the procedure:
as §1

The subject of data set [6] is E. coli DH10B pBCSK(−) producing VIM-2 (228R). The data set is described as follows: MIC by agar dilution, E. coli DH10B producing VIM-2. In kind it is cell-based.
Text: A forward primer containing the SacI restriction site and a reverse primer with the BamHI restriction site were used to amplify blaVIM-2 including the pET24a(+) ribosomal binding site, using plasmid pET-24a(+)-blaVIM-2 as template. The product was then subcloned into phagemid pBCSK (−) (Agilent (Santa Clara, Calif.)) using the above restriction sites, and thus placing the blaVIM-2 open reading frame under control of the lac promoter, to yield phagemid pBCSK (−) blaVIM-2.
as §2, §3

The test system of data set [7] is E. coli DH10B pBCSK(−) producing VIM-24 (R228L). In words: MIC by agar dilution, E. coli DH10B producing VIM-24. To be noted: Escherichia coli. In kind it is cell-based. On the procedure:
as §2, §3

Data set [8] deals with E. coli DH10B pBCSK(−) producing R228Q variant. The data set is described as follows: MIC by agar dilution, E. coli DH10B producing VIM-2 R228Q. In kind it is cell-based. To be noted: Escherichia coli. On the procedure: as §2, §3
For data set [9], the system named is E. coli pBC SK(−). In words: MIC by agar dilution, E. coli DH10B host with empty phagemid. In kind it is cell-based. The conditions noted are these: Escherichia coli. On the procedure: as §2, §3
The test system of data set [10] is E. coli DH10B pBCSK(−) producing R228M variant. The data set is described as follows: MIC by agar dilution, E. coli DH10B producing VIM-2 R228M. It is filed as cell-based. To be noted: Escherichia coli. On the procedure:
as §2, §3

Data set [11] has as its target T1, VIM-24. The data set is described as follows: BTZ inhibition kinetics of nitrocefin hydrolysis by VIM-24. It is filed as biochemical. From the text:
(§4) Analysis of BTZ inhibition kinetics. Models involving one, or two-step slow binding were considered to analyze BTZ inhibition of NFC hydrolysis by VIM-2 and VIM-24 (Scheme 1).
(§5) Here E represents the free enzyme, and I the free inhibitor, EI is the final enzyme-inhibitor complex for a single step slow binding mechanism, and E*I is the enzyme-inhibitor complex formed after conformational changes in a two-step slow binding mechanism. Therefore, the dissociation constant for the EI complex (Ki), also called the inhibitor constant, is defined as Ki=k−1/k1; the dissociation constant for the E*I complex (Ki′) is defined as Ki′=k−2/k2, and the overall dissociation constant for the two-step mechanism (Ki*) is defined as Ki*=Ki/(1+([…])).
(§6) The Ki for each inhibitor was determined by direct competition assays under steady-state conditions. The initial velocity was measured in the presence of a constant concentration of enzyme (3 nM for VIM-2 and 4 nM for VIM-24) with increasing concentrations of inhibitor (5-60 μM) against a fixed concentration (5 x KM) of the indicator substrate, NCF, as previously described (42-44). The reactions were started by addition of VIM-2 or VIM-24 to substrate or to mixtures of substrate and inhibitor. Data were linearized by plotting inverse initial steady-state velocities (1/v0) against inhibitor concentration (I). Ki (observed) was determined by dividing the value for the y intercept by the slope of the line. Ki determinations were corrected to account for the affinity of NCF for the β-lactamase according to equation 3.
(§7) Measurements of association rate constants for inhibitor binding were carried out at 25° C. in 10 mM HEPES at pH 7.5 supplemented with 200 mM NaCl, 50 μM […] and 50 μg/ml BSA, in the presence of several concentrations of each compound. Reactions were then initiated by the addition of β-lactamase (3 nM VIM-2 or 4 nM VIM-24) to a mixture of 50 μM NCF and each BTZ without pre-incubation. Inhibitor association rate constants were estimated from linear extrapolation of the observed rate constant for inhibition (kobs), which was obtained by fitting progress curves of NFC hydrolysis to Eq. 4:
(§8) As previously described, the linear dependence of kobs vs. [I] at limiting I concentration approximates second-order rate constant k2/Ki. The observed second-order rate constant also includes an adjustment for competition between inhibitor and substrate binding (Eq. 5).
(§9) Also, vs calculated from the progress curves of NCF hydrolysis for each concentration of inhibitor were used to determine Ki*, according to the relationship shown in equation 6 (5). The value reported is the mean of three velocities±SD.
(§10) To further test the time-dependent inhibition mechanism of inhibitor binding, assays using dilutions of pre-formed complexes were performed. For these experiments, 1 μM of enzyme was incubated with varying concentrations of the inhibitor which allowed for complete inactivation of the enzyme during the 5 min incubation at 25° C. The reactions were then diluted 2,000-fold in 10 mM HEPES at pH 7.5 supplemented with 200 mM NaCl, 50 μM […] and 50 μg/ml BSA, which contained 50 μM NCF. Reactivation of the enzyme based on NCF hydrolysis was monitored over time. Control reaction with the free enzyme was performed in the same fashion.

Data set [12] deals with MBLs. In words: Assays in solution after prolonged exposure to oxidative conditions. It is filed as biochemical. To be noted: data not shown.
For data set [13], the target named is T3, VIM-2 (Pseudomonas aeruginosa, UniProt Q9K2N0).
T3 construct: made in house; host or cells: E. coli BL21(DE3) pLys, plasmid pET-24a(+)-blaVIM-2-S21
The data set is described as follows: BTZ inhibition kinetics of nitrocefin hydrolysis by VIM-2. In kind it is biochemical, P. aeruginosa.
Text: as §4, §5, §6, §7, §8, §9, §10

Where [14] appears, read: MHA supplemented with 5 μM EDTA.
[15] abbreviates: MHA supplemented with 250 μM Zn2+.
The mark [16] stands for this setting: Escherichia coli, MHA supplemented with 5 μM EDTA, read-out: MIC.
Where [17] appears, read: Escherichia coli, MHA supplemented with 250 μM Zn2+, read-out: MIC.
[18] abbreviates: MHA supplemented with 5 μM EDTA, read-out: MIC.
[19] abbreviates: MHA supplemented with 250 μM Zn2+, read-out: MIC.
The mark [20] stands for this setting: rate constant for breakdown of E*I.
The mark [21] stands for this setting: rate constant for formation of E*I.

As to `CC(C)(O/N=C(\C(=O)N[C@@H]1C(=O)N2C(C(=O)[O-])=C(C[n+]3ccccc3)CS[C@H]12)c1csc(N)n1)C(=O)O` [Ceftazidime], the entries for the “rate of hydrolysis (initial velocity) in periplasma” value in [1] and in [5] were 4e-07 M/s and “measurable rates of hydrolysis were not obtained”, respectively. In addition, the MIC was 64 µg/mL (≈ 117 µM) in data set [2] (MHA); 64 µg/mL (≈ 117 µM) in data set [2] (setting [14]); 128 µg/mL (≈ 234 µM) in data set [2] (setting [15]); 1 µg/mL (≈ 1.83 µM) in [3] (MHA); not above 1 µg/mL in [3] (setting [14]); not above 1 µg/mL in [3] (setting [15]). Further, the MIC in data set [4] (MHA) was 1 µg/mL (≈ 1.83 µM); in [4] (setting [14]), not above 1 µg/mL; in data set [4] (setting [15]), 4 µg/mL (≈ 7.32 µM); in data set [6] (Escherichia coli, MHA), 16 µg/mL (≈ 29.3 µM); in data set [6] (setting [16]), 16 µg/mL (≈ 29.3 µM); in data set [6] (setting [17]) it was 32 µg/mL (≈ 58.5 µM). Moreover, the MIC in data set [7] (MHA) stood at 64 µg/mL (≈ 117 µM); in data set [7] (setting [18]) it was 32 µg/mL (≈ 58.5 µM); in data set [7] (setting [19]) it was 128 µg/mL (≈ 234 µM); in data set [8] (MHA) it was 128 µg/mL (≈ 234 µM); in [8] (setting [14]), 128 µg/mL (≈ 234 µM); in data set [8] (setting [15]) it was 512 µg/mL (≈ 937 µM). The MIC in data set [9] (MHA) is 0.06 µg/mL (≈ 0.11 µM); in [9] (setting [14]), not above 1 µg/mL; in data set [9] (setting [15]) it was not above 1 µg/mL; in data set [10] (MHA), 128 µg/mL (≈ 234 µM); in data set [10] (setting [14]), 64 µg/mL (≈ 117 µM); in [10] (setting [15]), 256 µg/mL (≈ 468 µM).
Broadly, the Ki is the equilibrium dissociation constant of an inhibitor or competing ligand from its target. Consider `O=C(O)[C@@H]1CS[C@H]2CS[C@H](CS)N21` [L-CS319], for which the “k−2” value is given as 0.001 ± 1 × 10^−3 s^−1 in [11] (setting [20]) and 0.0003 ± 1 × 10^−4 s^−1 in data set [13] (setting [20]). Further, the results for the k2 in data set [11] (setting [21]) and in [13] (setting [21]) were 0.06 ± 2 × 10^−3 s−1 and 0.03 ± 1 × 10^−3 s^−1, respectively. Also, in data set [12], the “inhibitory activity towards MBLs after prolonged exposure to oxidative conditions” value is listed as “abolishes the inhibitory activity”. In addition, the Ki was 3700 ± 300 nM in data set [13] (initial complex EI, NCF as reporter substrate) and 40 ± 10 nM in [13] (overall dissociation constant of two-step mechanism (E*I)).
Consider `CO/N=C(\C(=O)N[C@@H]1C(=O)N2C(C(=O)[O-])=C(C[N+]3(C)CCCC3)CS[C@H]12)c1csc(N)n1` [Cefepime], for which the “rate of hydrolysis (initial velocity) in periplasma” value in data set [1] is 5.3e-07 M/s; in data set [5], 2.9×10^−7 M^s−1. In addition, the MIC is 8 µg/mL (≈ 16.6 µM) in data set [2] (MHA); 8 µg/mL (≈ 16.6 µM) in data set [2] (setting [14]); 8 µg/mL (≈ 16.6 µM) in [2] (setting [15]); 0.5 µg/mL (≈ 1.04 µM) in data set [3] (MHA); not above 0.25 µg/mL in [3] (setting [14]); not above 0.25 µg/mL in [3] (setting [15]). In addition, the MIC in [4] (MHA) was 0.25 µg/mL (≈ 0.52 µM); in [4] (setting [14]), not above 0.25 µg/mL; in [4] (setting [15]), 0.5 µg/mL (≈ 1.04 µM); in data set [6] (Escherichia coli, MHA), not above 0.5 µg/mL; in data set [6] (setting [16]) it was 0.5 µg/mL (≈ 1.04 µM); in data set [6] (setting [17]), 0.5 µg/mL (≈ 1.04 µM). Further, the MIC in [6] (MHA) is 0.5 µg/mL (≈ 1.04 µM); in data set [7] (MHA), 4 µg/mL (≈ 8.32 µM); in data set [7] (setting [18]), 4 µg/mL (≈ 8.32 µM); in [7] (setting [19]), 4 µg/mL (≈ 8.32 µM); in data set [8] (MHA) it was 16 µg/mL (≈ 33.3 µM); in [8] (setting [14]), 16 µg/mL (≈ 33.3 µM). The MIC in data set [8] (setting [15]) was 32 µg/mL (≈ 66.6 µM); in [9] (MHA), 0.03 µg/mL (≈ 0.0624 µM); in data set [9] (setting [14]), not above 0.25 µg/mL; in data set [9] (setting [15]), not above 0.25 µg/mL; in data set [10] (MHA), 2 µg/mL (≈ 4.16 µM); in [10] (setting [14]), 4 µg/mL (≈ 8.32 µM). Further, the MIC in data set [10] (setting [15]) stood at 2 µg/mL (≈ 4.16 µM).
